# What was measured:
# P2X purinoceptor 7 [1] = target: T1, P2X purinoceptor 7 (Homo sapiens, UniProt Q99572); assay: (§1) On the day of the experiment, cell membrane preparations were made according to standard published methods. The total assay volume was 100 μl:10 μl compound (10×)+(b) 40 μl tracer (2.5×)+50 μl membrane (2×). The tracer used for the assay was tritiated A-804598. The compound can be prepared as described in the literature. […] The assay was terminated by filtration (GF/B filters pre-soaked with 0.3% PEI) and washed with washing buffer (Tris-HCl 50 mM). The IC50 generated in the binding assay was corrected for tracer concentration and affinity of the tracer to derive at the affinity (Ki) of the test compounds.
# T1 sequence (Q99572 whole entry): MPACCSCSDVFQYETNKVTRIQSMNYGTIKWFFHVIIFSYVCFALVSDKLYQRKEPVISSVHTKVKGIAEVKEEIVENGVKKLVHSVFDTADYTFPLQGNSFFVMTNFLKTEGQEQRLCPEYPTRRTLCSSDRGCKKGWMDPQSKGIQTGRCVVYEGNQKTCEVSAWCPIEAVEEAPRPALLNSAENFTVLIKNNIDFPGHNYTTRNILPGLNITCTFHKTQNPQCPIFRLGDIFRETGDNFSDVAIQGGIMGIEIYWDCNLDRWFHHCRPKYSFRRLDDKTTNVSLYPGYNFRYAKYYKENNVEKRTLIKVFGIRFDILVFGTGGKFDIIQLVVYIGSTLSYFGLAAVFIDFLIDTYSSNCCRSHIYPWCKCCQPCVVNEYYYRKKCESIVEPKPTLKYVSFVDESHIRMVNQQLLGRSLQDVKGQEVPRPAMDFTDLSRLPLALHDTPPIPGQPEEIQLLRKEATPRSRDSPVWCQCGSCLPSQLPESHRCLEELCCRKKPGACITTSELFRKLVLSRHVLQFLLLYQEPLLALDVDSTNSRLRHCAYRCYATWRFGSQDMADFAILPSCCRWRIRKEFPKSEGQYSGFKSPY
# P2X purinoceptor 7 [2] = target: T2, P2X purinoceptor 7 (Rattus norvegicus, UniProt Q64663); assay: as §1
# T2 sequence (Q64663 whole entry): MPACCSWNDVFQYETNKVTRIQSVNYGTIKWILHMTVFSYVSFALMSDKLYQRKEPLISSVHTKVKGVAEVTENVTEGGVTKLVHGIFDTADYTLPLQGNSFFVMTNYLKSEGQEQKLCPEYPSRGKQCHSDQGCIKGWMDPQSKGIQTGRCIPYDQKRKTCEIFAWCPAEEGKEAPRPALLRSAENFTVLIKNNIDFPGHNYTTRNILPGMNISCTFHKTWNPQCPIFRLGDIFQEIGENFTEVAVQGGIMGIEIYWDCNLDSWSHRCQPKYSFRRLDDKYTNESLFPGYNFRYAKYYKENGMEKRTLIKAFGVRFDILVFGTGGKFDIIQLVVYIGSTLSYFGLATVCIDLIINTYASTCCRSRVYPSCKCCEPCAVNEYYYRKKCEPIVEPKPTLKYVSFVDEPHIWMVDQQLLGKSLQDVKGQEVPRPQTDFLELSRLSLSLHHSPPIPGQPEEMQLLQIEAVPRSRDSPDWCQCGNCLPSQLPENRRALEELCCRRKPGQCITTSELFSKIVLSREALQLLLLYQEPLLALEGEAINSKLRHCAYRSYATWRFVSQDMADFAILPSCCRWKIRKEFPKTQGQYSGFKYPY
structure (smiles),measurement,setting,value
Cc1c(C(=O)N2Cc3nnn(C4=NN=CC4)c3CC2C)cccc1C(F)(F)F (configuration not stated),IC50,P2X purinoceptor 7 [1],16.5 nM
same,IC50,P2X purinoceptor 7 [2],10.2 nM
